Laboratory results published in PubChem BioAssay AID2060619 (Molecular Pharmacology Branch, DTP, NCI, 2025).

Test system: 323965-272-R-J2-PDC complex spheroid viability
Assay: Anticancer human tumor 323965-272-R-J2-PDC patient-derived pancreatic carcinoma cell line growth inhibition [CLK]
Settings: for IC50: curve of first compound; for viability, T/C: stronger effect = lower value
Excerpt: A high-throughput screen of multi-cell type tumor spheroids was designed to identify active combinations of […] and targeted small molecules. Complex spheroids include a stromal component modeled by human endothelial cells (HUVEC) and fibroblasts modeled by human mesenchymal stem cells (MSCs). The concentration ranges selected for each drug and investigational agent were based upon clinically achievable concentrations if the clinical Cmax of the agent was known.
Compounds. The drugs and investigational agents: cirtuvivint (SM08502; NSC835563), CC-671 (NSC850746), vemurafenib (NSC761431), tapotoclax (NSC804041), sotorasib (NSC818433), adagrasib (NSC831453), MRTX-1133 (NSC836407), BAY2416964 (NSC825713), copanlisib (NSC816437), inavolisib (NSC800729), abemaciclib (NSC768073), osimertinib (NSC779217), entinostat (NSC756642), eltanexor (KPT-8602, NSC794443), venetoclax (NSC766270), ceralasertib (NSC777638), bortezomib (NSC756655), olaparib (NSC753686), talazoparib (NSC767125), alisertib (NSC759677), peposertib (NSC802822), gemcitabine (NSC613327), 5-fluorouracil (NSC19893), SN-38 (NSC673596), oxaliplatin (NSC266046), paclitaxel (NSC125973), and doxorubicin (NSC123127), were obtained from the National Cancer Institute (NCI) Developmental Therapeutics Program Chemical Repository. The FDA-approved anticancer drug set is available from the Developmental Therapeutics Program at https://dtp.cancer.gov/organization/dscb/obtaining/available plates.htm. […] The stock solutions were prepared in dimethyl sulfoxide (DMSO, Sigma-Aldrich, St. Louis, MO, cat. D2650), except for the platinum complexes which were prepared in saline (Quality Biological, Gaithersburg, MD, cat. 114-055-101), at 800-fold the tested concentration and stored at -70 degrees C prior to their use. All drugs and investigational agents were tested over a range starting from a high concentration at or near the clinical Cmax and decreasing in half-log increments. If the clinical Cmax for an agent had not been determined, the highest concentration tested was 10 microM.
Cell Culture. All cells were maintained in an incubator at 37 degrees C and 5% CO2 with 95% humidity. The PDC lines were cultured according to standard operating procedures established by the NCI PDMR. Briefly, all PDCs were thawed and cultured in Matrigel-coated flasks prepared with a working solution of 1X Ham's F-12 nutrient mix, without supplementation (Invitrogen, Waltham, MA, cat. 11765054), 100 U/mL penicillin-streptomycin (Invitrogen, cat. 15140122), and 2.5% Matrigel (Corning Inc., Corning, NY, cat. 354248) for the first three passages. The 947758-054-R-J2-PDC line was cultured in 6B/Colon 1A media, which includes advanced DMEM/F-12 (Thermo Fisher Scientific, cat. 12634028), 10 mM HEPES (Thermo Fisher Scientific, cat. 15630080), 1X GlutaMAX supplement (Thermo Fisher Scientific, cat. 35050061), 0.1 mg/mL primocin (InvivoGen, cat. ant-pm-2), 10% defined fetal bovine serum, heat inactivated (HyClone Laboratories Inc., cat. SH30070.03HI), 1.25 mM N-Acetyl-L-cysteine (Sigma-Aldrich, cat. A9165), 10 mM nicotinamide (Sigma-Aldrich, cat. N0636), 1X B-27 supplement (Thermo Fisher Scientific, cat. 17504044), 1X N-2 supplement (Thermo Fisher Scientific, cat. 17502048), and 10 microM Y-27632 dihydrochloride (Tocris Bioscience, cat. 1254). The 876862-298-R-J1-PDC was cultured in 6E media, which includes all 6B/Colon 1A media components plus 50% L-WRN conditioned media (ATCC, cat. CRL-3276), 50 ng/mL recombinant human EGF recombinant protein (hEGF; Thermo Fisher Scientific, cat. PHG0311), 10 ng/mL recombinant human fibroblast growth factor 10 (hGFG-10; PeproTech, cat. 100-26), 1 ng/mL recombinant human fibroblast growth factor 2 (hFGF-2; PeproTech, cat. 100-18B), and 1 µM prostaglandin E2 (PGE2; Tocris, cat. 2296). The 227483-062-R1-J1-PDC line was cultured in Panc media, containing all 6E components except hFGF-2, with the addition of 500 nM SB-431542 (Selleckchem, cat. S1067) and 10 nM gastrin (Tocris, cat. 3006). […]

[1] = second compound 0.0316 µM, first compound 0.0316 µM
[2] = second compound 0.0316 µM, first compound 0.1 µM
[3] = second compound 0.0316 µM, first compound 0.316 µM
[4] = second compound 0.0316 µM, first compound 1 µM
[5] = second compound 0.0316 µM, first compound 3.16 µM
[6] = second compound 0.0316 µM, first compound 10 µM
[7] = second compound 0.1 µM, first compound 0.0316 µM
[8] = second compound 0.1 µM, first compound 0.1 µM
[9] = second compound 0.1 µM, first compound 0.316 µM
[10] = second compound 0.1 µM, first compound 1 µM
[11] = second compound 0.1 µM, first compound 3.16 µM
[12] = second compound 0.1 µM, first compound 10 µM
[13] = second compound 0.316 µM, first compound 0.0316 µM
[14] = second compound 0.316 µM, first compound 0.1 µM
[15] = second compound 0.316 µM, first compound 0.316 µM
[16] = second compound 0.316 µM, first compound 1 µM
[17] = second compound 0.316 µM, first compound 3.16 µM
[18] = second compound 0.316 µM, first compound 10 µM
[19] = second compound 1 µM, first compound 0.0316 µM
[20] = second compound 1 µM, first compound 0.1 µM
[21] = second compound 1 µM, first compound 0.316 µM
[22] = second compound 1 µM, first compound 1 µM
[23] = second compound 1 µM, first compound 3.16 µM
[24] = second compound 1 µM, first compound 10 µM
[25] = second compound 3.16 µM, first compound 0.0316 µM
[26] = second compound 3.16 µM, first compound 0.1 µM
[27] = second compound 3.16 µM, first compound 0.316 µM
[28] = second compound 3.16 µM, first compound 1 µM
[29] = second compound 3.16 µM, first compound 3.16 µM
[30] = second compound 3.16 µM, first compound 10 µM
[31] = second compound 10 µM, first compound 0.0316 µM
[32] = second compound 10 µM, first compound 0.1 µM
[33] = second compound 10 µM, first compound 0.316 µM
[34] = second compound 10 µM, first compound 1 µM
[35] = second compound 10 µM, first compound 3.16 µM
[36] = second compound 10 µM, first compound 10 µM
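Also: spheroids exposed to agents for seven days before readout.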
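For viability, T/C in this document: percent of DMSO vehicle control wells so 100% = untreated growth.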

C#Cc1c(F)ccc2cc(O)cc(-c3ncc4c(N5CC6CCC(C5)N6)nc(OCC56CCCN5CC(F)C6)nc4c3F)c12 (centres undefined) + CN1CCN(c2cc(C(=O)Nc3cc4cc(-c5cnn(C)c5)ccc4cn3)ccn2)CC1 gave an IC50 (second compound 0.0316 µM) greater than 10000 nM, an IC50 (second compound 0.1 µM) of 3050 nM and an IC50 (second compound 0.316 µM) of less than 31.6 nM. For the same compound, the IC50 (second compound 1 µM) was less than 31.6 nM, the IC50 (second compound 3.16 µM) was less than 31.6 nM and the IC50 (second compound 10 µM) was less than 31.6 nM. It also gave a viability, T/C [1] of 101%, a viability, T/C [2] of 101% and a viability, T/C [3] of 101%. For the same compound, the viability, T/C [4] was 95.8%, the viability, T/C [5] was 67.1% and the viability, T/C [6] was 50.9%. The viability, T/C [7] was 68.8%, the viability, T/C [8] was 73.2% and the viability, T/C [9] was 71.1%. For the same compound, the viability, T/C [10] was 63.3%, the viability, T/C [11] was 49.9% and the viability, T/C [12] was 42.6%. It also gave a viability, T/C [13] of 28.4%, a viability, T/C [14] of 25.6% and a viability, T/C [15] of 24.8%. The viability, T/C [16] was 22.9%, the viability, T/C [17] was 17.8% and the viability, T/C [18] was 15.1%. The viability, T/C [19] was 3.55%, the viability, T/C [20] was 3.52% and the viability, T/C [21] was 3.35%. It also gave a viability, T/C [22] of 3.07%, a viability, T/C [23] of 2.52% and a viability, T/C [24] of 2.87%. The viability, T/C [25] was 3.72%, the viability, T/C [26] was 4.19% and the viability, T/C [27] was 3.39%. For the same compound, the viability, T/C [28] was 3.07%, the viability, T/C [29] was 3.51% and the viability, T/C [30] was 5.09%. For the same compound, the viability, T/C [31] was 4.24%, the viability, T/C [32] was 4.08% and the viability, T/C [33] was 5.09%. For the same compound, the viability, T/C [34] was 3.16%, the viability, T/C [35] was 3.48% and the viability, T/C [36] was 3.19%.
C=C(F)C(=O)N1CCN(c2nc(OCC3CCCN3C)nc3c2CCN(c2cccc4cccc(Cl)c24)C3)CC1CC#N (centres undefined) + CN1CCN(c2cc(C(=O)Nc3cc4cc(-c5cnn(C)c5)ccc4cn3)ccn2)CC1 was tested, and the IC50 (second compound 0.0316 µM) was greater than 10000 nM, the IC50 (second compound 0.1 µM) was 31.6 nM and the IC50 (second compound 0.316 µM) was less than 31.6 nM. The IC50 (second compound 1 µM) was less than 31.6 nM, the IC50 (second compound 3.16 µM) was less than 31.6 nM and the IC50 (second compound 10 µM) was less than 31.6 nM. It also gave a viability, T/C [1] of 59%, a viability, T/C [2] of 56.5% and a viability, T/C [3] of 48.5%. For the same compound, the viability, T/C [4] was 74.6%, the viability, T/C [5] was 84.4% and the viability, T/C [6] was 29.1%. The viability, T/C [7] was 45.1%, the viability, T/C [8] was 44.3% and the viability, T/C [9] was 38%. It also gave a viability, T/C [10] of 44.3%, a viability, T/C [11] of 58.5% and a viability, T/C [12] of 25.3%. It also gave a viability, T/C [13] of 15.6%, a viability, T/C [14] of 14.8% and a viability, T/C [15] of 14.6%. It also gave a viability, T/C [16] of 15.5%, a viability, T/C [17] of 13.2% and a viability, T/C [18] of 5.86%. It also gave a viability, T/C [19] of 2.38%, a viability, T/C [20] of 2.52% and a viability, T/C [21] of 2.56%. The viability, T/C [22] was 2.45%, the viability, T/C [23] was 1.97% and the viability, T/C [24] was 0.73%. For the same compound, the viability, T/C [25] was 2.89%, the viability, T/C [26] was 2.94% and the viability, T/C [27] was 2.9%. It also gave a viability, T/C [28] of 2.86%, a viability, T/C [29] of 4.1% and a viability, T/C [30] of 0.62%. It also gave a viability, T/C [31] of 3.59%, a viability, T/C [32] of 3.43% and a viability, T/C [33] of 2.46%. For the same compound, the viability, T/C [34] was 2.58%, the viability, T/C [35] was 3.56% and the viability, T/C [36] was 0.3%.
